Assay results published in US20250057820A1, “AUTOTAXIN (ATX) INHIBITOR FOR THE TREATMENT OF PANCREATIC CANCER” (priority 2021, published 2025).

How the values were obtained:
[1] = test system: PANC-1 tumour cells; conditions: for tumour growth inhibition: BALB/C nude mice, tumour weight at day 42
Experimental: The therapeutic efficacy of Compound 1 with or without gemcitabine was evaluated in the orthotopic PANC-1 mouse model of pancreatic cancer. This model is constituted by the implantation of PANC-1 tumor cells into the pancreas […] in BALB/C nude mice.
Each mouse was inoculated into the subcapsular region of the pancreas with PANC-1 tumour cells (3×10^6) in 50 uL PBS with Matrigel (1:1). The date of tumour cell inoculation was denoted as day 0. Randomization started 10 days after tumour cell inoculation based on body weight. 10 mice per group were assigned to treatment by oral gavage with vehicle (1% methylcellulose, BID), gemcitabine (25 mg/kg, Q4D), Compound 1 (10 mg/kg, BID), or Compound 1 (10 mg/kg, BID) and gemcitabine (25 mg/kg, Q4D). Tumor sizes were measured by weight after termination at day 42.

[2] = test system: RC416 tumour cells; assay: orthotopic RC416 mouse model of pancreatic cancer (survival); format: in vivo; conditions: Compound 1 10 mg/kg BID p.o., galunisertib 50 mg/kg BID p.o., gemcitabine 75 mg/kg QW i.p.; max 28 days treatment; FIG. 5
Excerpt: This model is constituted by the implantation of RC416 cells originating from a spontaneous developed donor tumour in KPC mice into the pancreas of female wildtype C57BL/6 recipient mice. The pathology and tumour microenvironment in this model closely resemble human pancreatic cancer and is characterized by high circulating ATX and TGF-β.
The day of tumour cell inoculation was denoted as day 0. Randomization started 7 days after tumor cell inoculation, based on body weight. 5 mice per group were assigned to treatment, with vehicle (1% methylcellulose, BID p.o.), Compound 1 (10 mg/kg, BID p.o.), galunisertib (50 mg/kg, BID p.o.), gemcitabine (75 mg/kg, QW i.p.), or the combinations of Compound 1 plus gemcitabine, Compound 1 plus galunisertib and gemcitabine, and galunisertib plus gemcitabine, Mice were treated for a maximum of 28 days and anti-tumour activity was measured by survival.

[3] = test system: pancreatic cancer; conditions: pancreatic cancer patients, standard treatment; cited from earlier work
[4] = test system: mPA6115-luc tumour cells; assay: orthotopic mPA6115-luc mouse model of pancreatic cancer; format: in vivo; conditions: 10 mg/kg BID oral gavage, female C57BL/6 mice, FIG. 2
Experimental: This model is constituted by the implantation of mPA6115-luc cells originating from a spontaneous developed donor tumour in KPC mice into the pancreas of female wildtype C57BL/6 recipient mice.
Each mouse was inoculated into the subcapsular region of the pancreas with mPA6115-luc tumour cells (1×10^6) in 50 uL PBS with Matrigel (1:1). The date of tumour cell inoculation was denoted as day 0.
The randomization started 4 days after tumour cell inoculation based on the total flux (p/s, minimum flux>1E^6). 10 mice per group were assigned to treatment by BID oral gavage with vehicle (1% methylcellulose) or Compound 1 (10 mg/kg in 1% methylcellulose). Tumour growth and metastasis were imaged twice per week by bioluminescent imaging.

[5] = test system: PANC-1 tumour cells; assay: subcutaneous PANC-1 xenograft mouse model of pancreatic cancer; format: in vivo; conditions: BALB/c Nude mice, subcutaneous PANC-1, FIG. 3
Experimental: The therapeutic efficacy of Compound 1 was evaluated in the subcutaneous PANC-1 mouse model of pancreatic cancer.
BALB/c Nude mice were inoculated subcutaneously in the right front flank region with PANC-1 tumour cells (5×10^6) in 0.1 ml of PBS. The date of tumour cell inoculation was denoted as day 0. The randomization started when the mean tumour size>100 mm^3. 10 mice were enrolled per study group. Tumour growth and body weights were measured twice per week.

[6] = Compound 1 10 mg/kg BID, gemcitabine 25 mg/kg Q4D

Question: Which “mice died or sacrificed for reaching humane endpoints (mortality)” value ([1]; 10 mice per group, Compound 1 10 mg/kg BID, gemcitabine 25 mg/kg Q4D) does the source give for `Nc1ccn([C@@H]2O[C@H](CO)[C@@H](O)C2(F)F)c(=O)n1` [gemcitabine] here?
Answer: 5 mice

Question: And the tumour growth inhibition [1, 6]?
Answer: 41%

Question: What about the “Number of Mice on Day 42” value ([1]; BALB/C nude, mouse, in vivo, 42 day) of the same molecule?
Answer: 5

Question: What about the “Pancreas Size (mg) on Day 42” value ([1]; Day 42) of the same molecule?
Answer: 549 + 44 mg

Question: What about the survival [2] of the same molecule?
Answer: limited survival benefit

Question: And the “average median overall survival” value [3]?
Answer: 6 months

Question: What about the response rate [3] of the same molecule?
Answer: 5-10%

Question: For `C[C@H](NC(=O)CCc1nc2cccnc2n1Cc1ccc(OC(F)(F)F)cc1)c1ccc(Cl)cc1` [Compound 1, N—[(S)-1-(4-chloro-phenyl)-ethyl]-3-[3-(4-trifluoromethoxy-benzyl)-3H-imidazo[4,5-b]pyridin-2-yl]-propionamide], which “tumour outgrowth based on total bioluminescence” value [4] is on record?
Answer: significantly reduced tumour outgrowth

Question: And the tumour outgrowth [5]?
Answer: reduced tumour outgrowth

Question: What about the tumour growth inhibition [1, 6] of the same molecule?
Answer: 5%
